Assay results: ChEMBL document CHEMBL1128559, “Inhibition of the oncogene product p185erbB-2 in vitro and in vivo by geldanamycin and dihydrogeldanamycin derivatives” (J Med Chem, 1995)
pIC50: −log10 of the molar value.

Tests used:
SK-BR-3 [1] = test: Inhibition of oncogene product p185 erbB-2 from human breast cancer cells(SK-BR-3 cells).
Mus musculus [2] = test: In vivo inhibition of phospho-p185erbB-2 expression in FRE/erbB-2 tumors in nu/nu mice at 100 mg/kg dose.
Mus musculus [3] = test: In vivo inhibition of phospho-p185erbB-2 expression in FRE/erbB-2 tumors in nu/nu mice at 200 mg/kg dose.
SK-BR-3 [4] = test: […] inhibition of phospho-p185erbB-2 expression in human breast cancer cells(SK-BR-3 cells) at 200 mg/kg dose.; type: functional
SK-BR-3 [5] = test: Inhibition of oncogene product p185 erbB-2 from human breast cancer cells(SK-BR-3 cells) at 50 mg/kg dose.; type: functional
Mus musculus [6] = test: In vivo inhibition of phospho-p185erbB-2 expression in human SK-BR-3 tumors at 100 mg/kg ip dose in mice; type: functional; settings: SK-BR-3, ip, route intraperitoneal
Mus musculus [7] = test: In vivo inhibition of phospho-p185erbB-2 expression in FRE/erbB-2 tumors at 200 mg/kg dose ip in mice; settings: FRE/erbB-2, ip
Mus musculus [8] = test: In vivo inhibition of phospho-p185erbB-2 expression in human SK-BR-3 tumors at 50 mg/kg ip dose in mice; type: functional; settings: SK-BR-3, ip, route intraperitoneal
Mus musculus [9] = species: Mus musculus; settings: 400 mg/kg
Description: In vivo inhibition of phospho-p185erbB-2 expression in human SK-BR-3 tumors at 400 mg/kg dose in mice (lethal)

Mus musculus [10] = test: In vivo inhibition of phospho-p185erbB-2 expression in FRE/erbB-2 tumors at 400 mg/kg ip dose in mice; settings: FRE/erbB-2, ip
SK-BR-3 [11] = test: In vitro inhibition of phospho-p185erbB-2 expression in human breast cancer cells(SK-BR-3 cells) at 50 mg/kg dose; type: functional; parameters: dose 50 mg/kg
Mus musculus [12] = test: In vivo inhibition of phospho-p185erbB-2 expression in human SK-BR-3 tumors at 100 mg/kg dose in mice; type: functional
Mus musculus [13] = test: In vivo inhibition of phospho-p185erbB-2 expression in FRE/erbB-2 tumors at 400 mg/kg dose in mice
Mus musculus [14] = test: In vivo inhibition of phospho-p185erbB-2 expression in FRE/erbB-2 tumors at 200 mg/kg dose in mice
Mus musculus [15] = test: In vivo inhibition of phospho-p185erbB-2 expression in FRE/erbB-2 tumors at 50 mg/kg dose in mice

Structure (SMILES) | pIC50 (SK-BR-3 [1]) | inhibition in vivo at 100 mg/kg (Mus musculus [2]) | inhibition in vivo at 200 mg/kg (Mus musculus [3]) | also measured
CO[C@H]1C[C@H](C)CC2=C(NC3CC3)C(=O)C=C(NC(=O)/C(C)=C/CC[C@H](OC)[C@@H](OC(N)=O)/C(C)=C/[C@H](C)[C@H]1O)C2=O | 7.34 | 31% |  | 
CO[C@H]1C[C@H](C)CC2=C(NCCF)C(=O)C=C(NC(=O)/C(C)=C/CC[C@H](OC)[C@@H](OC(N)=O)/C(C)=C/[C@H](C)[C@H]1O)C2=O | 7.57 |  | 53% | 
CNC1=C2C[C@@H](C)C[C@H](OC)[C@H](O)[C@@H](C)/C=C(\C)[C@H](OC(N)=O)[C@@H](OC)CC/C=C(\C)C(=O)NC(=CC1=O)C2=O | 7.92 |  | 37% | 
CO[C@H]1/C=C\C=C(/C)C(=O)NC2=CC(=O)C(NC[C@H](C)O)=C(C[C@@H](C)C[C@H](OC)[C@H](O)[C@@H](C)/C=C(\C)[C@@H]1OC(N)=O)C2=O | 7.00 | 65% | 70% | 
COCCNC1=C2C[C@@H](C)C[C@H](OC)[C@H](O)[C@@H](C)/C=C(\C)[C@H](OC(N)=O)[C@@H](OC)CC/C=C(\C)C(=O)NC(=CC1=O)C2=O | 7.48 | 42% | 69% | 
CO[C@H]1C[C@H](C)CC2=C(NCCO)C(=O)C=C(NC(=O)/C(C)=C/CC[C@H](OC)[C@@H](OC(N)=O)/C(C)=C/[C@H](C)[C@H]1O)C2=O | 7.47 |  | 55% | 
CO[C@H]1/C=C\C=C(/C)C(=O)NC2=CC(=O)C(NCCC#N)=C(C[C@@H](C)C[C@H](OC)[C@H](O)[C@@H](C)/C=C(\C)[C@@H]1OC(N)=O)C2=O |  |  |  | inhibition in vivo at 200 mg/kg (SK-BR-3 [4]): 61%; pIC50 (SK-BR-3 [5]): 7.77
COC1=C2C[C@@H](C)C[C@H](OC)[C@H](O)[C@@H](C)/C=C(\C)[C@H](OC(N)=O)[C@@H](OC)/C=C\C=C(/C)C(=O)NC(=CC1=O)C2=O [GELDANAMYCIN] | 7.15 |  |  | inhibition in vivo at 100 mg/kg (Mus musculus [6]): 6%; inhibition in vivo at 200 mg/kg (Mus musculus [7]): 25%; inhibition in vivo at 50 mg/kg (Mus musculus [8]): 30%; inhibition (Mus musculus [9]): Lethal
CO[C@H]1/C=C\C=C(/C)C(=O)NC2=CC(=O)C(N)=C(C[C@@H](C)C[C@H](OC)[C@H](O)[C@@H](C)/C=C(\C)[C@@H]1OC(N)=O)C2=O | 7.43 |  | 47% | 
CO[C@H]1/C=C\C=C(/C)C(=O)NC2=CC(=O)C(NCCF)=C(C[C@@H](C)C[C@H](OC)[C@H](O)[C@@H](C)/C=C(\C)[C@@H]1OC(N)=O)C2=O | 7.92 | 50% | 68% | 
CO[C@H]1/C=C\C=C(/C)C(=O)NC2=CC(=O)C=C(C[C@@H](C)C[C@H](OC)[C@H](O)[C@@H](C)/C=C(\C)[C@@H]1OC(N)=O)C2=O |  |  |  | inhibition in vivo at 100 mg/kg (Mus musculus [6]): 34%; inhibition in vivo at 50 mg/kg (Mus musculus [8]): 29%; inhibition in vivo at 400 mg/kg (Mus musculus [10]): 57%; pIC50 (SK-BR-3 [11]): 6.52
CO[C@H]1C[C@H](C)CC2=C(NCCC#N)C(=O)C=C(NC(=O)/C(C)=C/CC[C@H](OC)[C@@H](OC(N)=O)/C(C)=C/[C@H](C)[C@H]1O)C2=O |  |  |  | pIC50 (SK-BR-3 [5]): 7.52
CO[C@H]1C[C@H](C)CC2=C(N3CCC3)C(=O)C=C(NC(=O)/C(C)=C/CC[C@H](OC)[C@@H](OC(N)=O)/C(C)=C/[C@H](C)[C@H]1O)C2=O | 7.85 | 38% | 27% | 
CO[C@H]1/C=C\C=C(/C)C(=O)NC2=CC(=O)C(N3CCC3)=C(C[C@@H](C)C[C@H](OC)[C@H](O)[C@@H](C)/C=C(\C)[C@@H]1OC(N)=O)C2=O | 7.64 | 61% | 68% | 
CO[C@H]1/C=C\C=C(/C)C(=O)NC2=CC(=O)C(NC(C)C)=C(C[C@@H](C)C[C@H](OC)[C@H](O)[C@@H](C)/C=C(\C)[C@@H]1OC(N)=O)C2=O | 7.22 |  | 87% | 
CO[C@H]1/C=C\C=C(/C)C(=O)NC2=CC3=NC(N(C)Cc4ccccc4)=NC3=C(C[C@@H](C)C[C@H](OC)[C@H](O)[C@@H](C)/C=C(\C)[C@@H]1OC(N)=O)C2=O |  |  |  | pIC50 (SK-BR-3 [5]): 6.52
CO[C@H]1C[C@H](C)CC2=C(N)C(=O)C=C(NC(=O)/C(C)=C/CC[C@H](OC)[C@@H](OC(N)=O)/C(C)=C/[C@H](C)[C@H]1O)C2=O | 7.40 | 45% | 44% | 
CCN(CC)C1=NC2=C3C[C@@H](C)C[C@H](OC)[C@H](O)[C@@H](C)/C=C(\C)[C@H](OC(N)=O)[C@@H](OC)/C=C\C=C(/C)C(=O)NC(=CC2=N1)C3=O |  |  |  | pIC50 (SK-BR-3 [5]): 6.68
CO[C@H]1C[C@H](C)CC2=C3N=C(N(C)C)N=C3C=C(NC(=O)/C(C)=C/CC[C@H](OC)[C@@H](OC(N)=O)/C(C)=C/[C@H](C)[C@H]1O)C2=O |  |  |  | pIC50 (SK-BR-3 [5]): 7.30
C=CCNC1=C2C[C@@H](C)C[C@H](OC)[C@H](O)[C@@H](C)/C=C(\C)[C@H](OC(N)=O)[C@@H](OC)/C=C\C=C(/C)C(=O)NC(=CC1=O)C2=O [TANESPIMYCIN] | 7.51 | 55% | 68% | inhibition in vivo at 100 mg/kg (Mus musculus [12]): 60%; inhibition in vivo at 400 mg/kg (Mus musculus [13]): 72%; inhibition in vivo at 200 mg/kg (Mus musculus [14]): 80%; inhibition in vivo at 50 mg/kg (Mus musculus [15]): 27%
CO[C@H]1C[C@H](C)CC2=C(N3CC(CO)C3)C(=O)C=C(NC(=O)/C(C)=C/CC[C@H](OC)[C@@H](OC(N)=O)/C(C)=C/[C@H](C)[C@H]1O)C2=O | 5.89 |  |  | 
C=CCNC1=C2C[C@@H](C)C[C@H](OC)[C@H](O)[C@@H](C)/C=C(\C)[C@H](OC(N)=O)[C@@H](OC)CC/C=C(\C)C(=O)NC(=CC1=O)C2=O | 7.29 |  |  | 
CO[C@H]1C[C@H](C)CC2=C(NCC(C)O)C(=O)C=C(NC(=O)/C(C)=C/CC[C@H](OC)[C@@H](OC(N)=O)/C(C)=C/[C@H](C)[C@H]1O)C2=O (some centres not stated) | 7.08 |  | 32% | 
CO[C@H]1/C=C\C=C(/C)C(=O)NC2=CC(=O)C(NCCO)=C(C[C@@H](C)C[C@H](OC)[C@H](O)[C@@H](C)/C=C(\C)[C@@H]1OC(N)=O)C2=O | 7.00 |  |  | 
CO[C@H]1/C=C\C=C(/C)C(=O)NC2=CC3=NC(N(C)C)=NC3=C(C[C@@H](C)C[C@H](OC)[C@H](O)[C@@H](C)/C=C(\C)[C@@H]1OC(N)=O)C2=O |  |  |  | pIC50 (SK-BR-3 [5]): 7.30
CO[C@H]1C[C@H](C)CC2=C(N3CC(O)C3)C(=O)C=C(NC(=O)/C(C)=C/CC[C@H](OC)[C@@H](OC(N)=O)/C(C)=C/[C@H](C)[C@H]1O)C2=O | 7.30 | 29% | 44% | 
C#CCNC1=C2C[C@@H](C)C[C@H](OC)[C@H](O)[C@@H](C)/C=C(\C)[C@H](OC(N)=O)[C@@H](OC)/C=C\C=C(/C)C(=O)NC(=CC1=O)C2=O | 7.59 |  |  | 
